Assay in all cases: relative viability (nuclei count vs DMSO), 5 days (fraction); higher = more cells survive
Compound in the assay “DM3189 + Bortezomib”: C1CN(CCN1)C2=CC=C(C=C2)C3=CN4C(=C(C=N4)C5=CC=NC6=CC=CC=C56)N=C3 [DM3189] + CC(C)C[C@H](NC(=O)[C@H](Cc1ccccc1)NC(=O)c1cnccn1)B(O)O [Bortezomib] (partner 0.002 µM)
In short, it runs like this:
(§1)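 Cells from lung cancer lines were seeded into 1536-well plates and, one day later, dosed by pin tool. Treatments were either a single drug or a fixed dose of an anchor drug with five library-drug doses (not always all listed) in √10 steps. After 5 days, nuclei were stained in a one-step fixation (final 0.05% Triton X-100, 1% formaldehyde, 1 ug/ml Hoechst) and counted on 4× images, and relative viability is the treated-to-vehicle nuclei ratio, as the median of duplicate plates.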

Compound in the assay “DM3189 + OSI-027”: C1CN(CCN1)C2=CC=C(C=C2)C3=CN4C(=C(C=N4)C5=CC=NC6=CC=CC=C56)N=C3 [DM3189] + COc1cccc2cc(-c3nc([C@H]4CC[C@H](C(=O)O)CC4)n4ncnc(N)c34)[nH]c12 [OSI-027] (partner 0.5 µM)
In short, it runs like this: as §1

Compound in the assay “DM3189 + Crizotinib”: C1CN(CCN1)C2=CC=C(C=C2)C3=CN4C(=C(C=N4)C5=CC=NC6=CC=CC=C56)N=C3 [DM3189] + C[C@@H](Oc1cc(-c2cnn(C3CCNCC3)c2)cnc1N)c1c(Cl)ccc(F)c1Cl [Crizotinib] (partner 1 µM)
In short, it runs like this: as §1

Compound in the assay “DM3189 + Pemetrexed”: C1CN(CCN1)C2=CC=C(C=C2)C3=CN4C(=C(C=N4)C5=CC=NC6=CC=CC=C56)N=C3 [DM3189] + Nc1nc2[nH]cc(CCc3ccc(C(=O)N[C@@H](CCC(=O)O)C(=O)O)cc3)c2c(=O)[nH]1 [Pemetrexed] (partner 0.2 µM)
The essentials: as §1

Compound in the assay “DM3189 + Decitabine”: C1CN(CCN1)C2=CC=C(C=C2)C3=CN4C(=C(C=N4)C5=CC=NC6=CC=CC=C56)N=C3 [DM3189] + Nc1ncn([C@H]2C[C@H](O)[C@@H](CO)O2)c(=O)n1 [Decitabine] (partner 2 µM)
In short, it runs like this: as §1

On to NCI-H838, for which the relative viability with DM3189 + Bortezomib (first compound 0.08 µM) is 1; in the assay with DM3189 + Bortezomib (first compound 0.253 µM), 0.64; in the assay with DM3189 + Bortezomib (first compound 0.8 µM), 0.633; in the assay with DM3189 + Bortezomib (first compound 2.53 µM) it was 0.92; in the assay with DM3189 + OSI-027 (first compound 0.08 µM), 0.427; in the assay with DM3189 + OSI-027 (first compound 0.253 µM), 0.376. Also, the relative viability is 0.312 with DM3189 + OSI-027 (first compound 0.8 µM); 0.357 with DM3189 + OSI-027 (first compound 2.53 µM); 0.752 in the assay with DM3189 + Crizotinib (first compound 0.08 µM); 0.815 with DM3189 + Crizotinib (first compound 0.253 µM); 0.531 with DM3189 + Crizotinib (first compound 0.8 µM); 0.732 in the assay with DM3189 + Crizotinib (first compound 2.53 µM). For the same cell line, the relative viability in the assay with DM3189 + Pemetrexed (first compound 0.08 µM) was 0.238; with DM3189 + Pemetrexed (first compound 0.253 µM) it was 0.255; with DM3189 + Pemetrexed (first compound 0.8 µM), 0.239; with DM3189 + Pemetrexed (first compound 2.53 µM) it was 0.22; with DM3189 + Decitabine (first compound 0.08 µM), 0.446; with DM3189 + Decitabine (first compound 0.253 µM), 0.458. In addition, the relative viability with DM3189 + Decitabine (first compound 0.8 µM) was 0.431; in the assay with DM3189 + Decitabine (first compound 2.53 µM), 0.525.
With NCI-H1355, the relative viability in the assay with DM3189 + Bortezomib (first compound 0.08 µM) amounted to 1.21; in the assay with DM3189 + Bortezomib (first compound 0.253 µM), 1.22; with DM3189 + Bortezomib (first compound 0.8 µM), 0.992; with DM3189 + Bortezomib (first compound 2.53 µM), 1.17; in the assay with DM3189 + OSI-027 (first compound 0.08 µM), 0.482; with DM3189 + OSI-027 (first compound 0.253 µM), 0.36. In addition, the relative viability with DM3189 + OSI-027 (first compound 0.8 µM) was 0.366; with DM3189 + OSI-027 (first compound 2.53 µM), 0.39; in the assay with DM3189 + Crizotinib (first compound 0.08 µM) it was 1.14; in the assay with DM3189 + Crizotinib (first compound 0.253 µM), 1.12; in the assay with DM3189 + Crizotinib (first compound 0.8 µM), 0.955; with DM3189 + Crizotinib (first compound 2.53 µM), 0.971. Also, the relative viability was found to be 1.03 with DM3189 + Pemetrexed (first compound 0.08 µM); 0.986 in the assay with DM3189 + Pemetrexed (first compound 0.253 µM); 0.821 with DM3189 + Pemetrexed (first compound 0.8 µM); 1.03 with DM3189 + Pemetrexed (first compound 2.53 µM); 0.337 in the assay with DM3189 + Decitabine (first compound 0.08 µM); 0.39 with DM3189 + Decitabine (first compound 0.253 µM). The relative viability with DM3189 + Decitabine (first compound 0.8 µM) was 0.345; with DM3189 + Decitabine (first compound 2.53 µM), 0.37.
Consider NCI-H1437, for which the relative viability was 0.601 with DM3189 + Bortezomib (first compound 0.08 µM); 0.442 with DM3189 + Bortezomib (first compound 0.253 µM); 0.543 with DM3189 + Bortezomib (first compound 0.8 µM); 0.628 with DM3189 + Bortezomib (first compound 2.53 µM); 0.895 with DM3189 + OSI-027 (first compound 0.08 µM); 0.862 in the assay with DM3189 + OSI-027 (first compound 0.253 µM). Besides, the relative viability stood at 0.906 in the assay with DM3189 + OSI-027 (first compound 0.8 µM); 1.08 with DM3189 + OSI-027 (first compound 2.53 µM); 0.904 in the assay with DM3189 + Crizotinib (first compound 0.08 µM); 0.898 in the assay with DM3189 + Crizotinib (first compound 0.253 µM); 0.832 in the assay with DM3189 + Crizotinib (first compound 0.8 µM); 0.831 with DM3189 + Crizotinib (first compound 2.53 µM). Also, the relative viability with DM3189 + Pemetrexed (first compound 0.08 µM) is 0.34; with DM3189 + Pemetrexed (first compound 0.253 µM) it was 0.333; in the assay with DM3189 + Pemetrexed (first compound 0.8 µM), 0.326; with DM3189 + Pemetrexed (first compound 2.53 µM), 0.293; in the assay with DM3189 + Decitabine (first compound 0.08 µM), 0.6; with DM3189 + Decitabine (first compound 0.253 µM) it was 0.542. The relative viability is 0.554 with DM3189 + Decitabine (first compound 0.8 µM) and 0.571 with DM3189 + Decitabine (first compound 2.53 µM).
For the cell line NCI-H1650, the relative viability in the assay with DM3189 + Bortezomib (first compound 0.08 µM) stood at 0.248; with DM3189 + Bortezomib (first compound 0.253 µM) it was 0.163; with DM3189 + Bortezomib (first compound 0.8 µM), 0.228; in the assay with DM3189 + Bortezomib (first compound 2.53 µM) it was 0.189; in the assay with DM3189 + OSI-027 (first compound 0.08 µM) it was 0.715; in the assay with DM3189 + OSI-027 (first compound 0.253 µM) it was 0.658. Also, the relative viability with DM3189 + OSI-027 (first compound 0.8 µM) amounted to 0.468; with DM3189 + OSI-027 (first compound 2.53 µM) it was 0.524; in the assay with DM3189 + Crizotinib (first compound 0.08 µM) it was 0.896; with DM3189 + Crizotinib (first compound 0.253 µM), 0.851; in the assay with DM3189 + Crizotinib (first compound 0.8 µM) it was 1.15; with DM3189 + Crizotinib (first compound 2.53 µM), 0.717. Moreover, the relative viability amounted to 0.311 with DM3189 + Pemetrexed (first compound 0.08 µM); 0.347 in the assay with DM3189 + Pemetrexed (first compound 0.253 µM); 0.351 in the assay with DM3189 + Pemetrexed (first compound 0.8 µM); 0.37 with DM3189 + Pemetrexed (first compound 2.53 µM); 0.367 in the assay with DM3189 + Decitabine (first compound 0.08 µM); 0.462 with DM3189 + Decitabine (first compound 0.253 µM). Besides, the relative viability in the assay with DM3189 + Decitabine (first compound 0.8 µM) amounted to 0.366; in the assay with DM3189 + Decitabine (first compound 2.53 µM), 0.425.

These data come from the supplement of paper PMC10307832.
